Each structure is given as a SMILES string. Several values for one entry are separate records, joined by “and”; a condition that tells them apart may be missing. Equal entries are not always repeated.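 These data come from cells grown in 96-well plates and exposed to compound for 48 hours at five concentrations. GI50: concentration for 50% inhibition of growth. At the TGI there is no net growth.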

Experiment in all cases: NCI tumour cell line growth inhibition, 48 h
Assay [1] has as its system DLD-1 colon.
In assay [2] the test system is DMS 114 small cell lung.
In assay [3] the test system is DMS 273 small cell lung.
Assay [4] relates to HOP-18 NSCLC.
Assay [5] deals with LXFL 529 NSCLC.
For assay [6], the system named is M19-MEL melanoma.
In assay [7] the test system is MDA-N.
The test system of assay [8] is XF 498 CNS.
Assay [9] concerns RXF-631 renal.
The test system of assay [10] is P388/ADR leukemia.
For assay [11], the system named is SN12K1 renal.

`C[C@@H]1C[C@@H](O)[C@]2(O)O[C@@H]3C[C@@]4(C=O)[C@@H](CC[C@@H]5[C@@H]4CC[C@]4(C)[C@@H](C6=CC(=O)OC6)CC[C@]54O)C[C@H]3O[C@@H]2O1`: the GI50 was 0.0053 µM in assay [1]; 0.005 µM in assay [2]; 0.005 µM in assay [4]; 0.0125 µM in assay [6]; 0.0206 µM in assay [8]. Also, the TGI in assay [1] was 0.0375 µM and 0.033 µM; in assay [2], 0.0094 µM and 0.0134 µM; in [3], 0.0724 µM and 0.0123 µM; in assay [5], 0.0164 µM and 0.0576 µM; in assay [6], 0.104 µM and 0.0732 µM; in assay [7] it was 0.189 µM. Besides, the TGI in assay [8] is 0.0571 µM and 0.0493 µM.
Turning to `COc1cc(CCc2ccc(OCCN(C)C)cc2)cc(OC)c1OC`, the TGI in assay [1], in assay [2], in assay [3], in assay [4], in assay [5] and in [6] was more than 100 µM in each case. The TGI in assay [9] was more than 100 µM; in assay [8] it was 93.7 µM.
With `Cc1cnc2c(C)ccc([N+](=O)[O-])c2c1NCCCN(C)C`, the TGI in assay [2], in [3] and in [6] was more than 100 µM throughout.
Consider `Nn1c(-c2ccccc2)nc2ccc(Br)cc2c1=O`, for which the TGI in [1], in assay [2], in [3], in [4], in assay [5] and in assay [6] was more than 100 µM throughout. In addition, the TGI in [9] and in [8] was more than 100 µM throughout.
With `COc1ccc(C(=O)/C(Br)=C/C(=O)O)cc1`, the TGI in assay [1] was 73.5 µM; in assay [2] it was 114 µM; in assay [3], 26.3 µM; in assay [4] it was 139 µM; in assay [6] it was 106 µM; in assay [7], 209 µM and 153 µM. The figures for the TGI in assay [10], in assay [11] and in assay [8] were 108 µM, 22.6 µM and 16 µM, respectively. In [7], the GI50 is 47.4 µM.
In the case of `Cc1ncc(CN=Cc2ccc(Cl)cc2)c(N)n1`, the TGI in assay [7] is more than 100 µM.
In the case of `O=C1C(=O)N(C(=O)c2ccc(Cl)c(Cl)c2)c2ccccc21`, the TGI in assay [1], in assay [2], in assay [3], in [4], in assay [5] and in [6] was more than 100 µM in each case. This molecule yielded a TGI in [9] of more than 100 µM.
For `O=P(O)(CCP(=O)(O)c1ccccc1)c1ccccc1`, the TGI in assay [7] is more than 100 µM.
In the case of `CC1=C(C)C(=O)c2c(cc3ccc4ccccc4n23)C1=O`, the TGI in assay [1], in assay [2], in assay [3], in assay [4], in assay [5] and in assay [6] was more than 100 µM in each case. Further, the TGI in [9] is more than 100 µM.
Regarding `N#Cc1c(-c2nc3ccccc3s2)c(=O)oc2cc(O)ccc12`, the TGI in [7] is more than 100 µM.
For `O=C(c1ccccc1)C(c1ccccc1)C1(O)C(=O)Nc2c(Cl)cc(Cl)cc21` (centres undefined), the TGI in assay [1] turned out to be 37.5 µM; in assay [2], 33.9 µM; in assay [3], 83.2 µM; in assay [4], 36.6 µM; in [5], 25.7 µM; in assay [9] it was 38 µM. Besides, the TGI in [8] is more than 100 µM.
Turning to `O=C(c1ccccc1)C(C(=O)c1ccccc1)C1(O)C(=O)c2ccccc2C1=O`, the TGI in assay [3] is more than 100 µM; in assay [4], more than 100 µM; in [5], more than 100 µM; in assay [6], 42.6 µM; in assay [8] it was more than 100 µM.
Consider `CN1CC[C@@H](c2c(O)cc(O)c3c(=O)cc(-c4ccccc4Cl)oc23)[C@@H](O)C1`, for which the TGI is more than 100 µM in assay [1]; 0.334 µM in assay [2]; 0.32 µM in assay [3]; more than 68.6 µM in [5]; 0.349 µM and 0.148 µM in assay [7]; 0.533 µM in assay [8]. The GI50 in assay [7] was 0.124 µM and 0.0494 µM.
For `Cc1nc2c(nc1C)C(=O)c1cc(O)ccc1C2=O`, the TGI in assay [1] is more than 86.8 µM; in assay [2] it was more than 90.6 µM; in assay [3], more than 100 µM; in assay [4], more than 100 µM; in [5], more than 100 µM; in assay [6] it was 22.3 µM.
Consider `O=C1CC(O)C=C1Nc1ccc(Cl)cc1` (centres undefined), for which the TGI in [1], in assay [2], in assay [3], in [4], in [5] and in [6] was more than 100 µM in each case. The TGI in assay [9] is more than 100 µM.
In turn, `Nc1nc(SCc2ccccn2)c2ncn(C3CCCC3)c2n1` returned a TGI in assay [7] of more than 100 µM.
Take `COc1cccc(C2CC(C)(N3CCCC3)Oc3cc4c(cc32)OCO4)c1O` (centres undefined): the TGI in [7] was 10.7 µM.
`O=C(CNc1nncs1)NO`: the TGI in [1], in assay [2], in assay [3], in [4], in [5] and in assay [6] was more than 100 µM throughout.
As for `CC1OC(OCC2OC(Oc3c(-c4ccc(O)cc4)oc4cc(O)cc(O)c4c3=O)C(OC3OCC(O)(CO)C3O)C(O)C2O)C(O)C(O)C1O` (centres undefined), the TGI in assay [1] was more than 100 µM; in assay [2], more than 100 µM; in assay [3], more than 100 µM; in [4], more than 100 µM; in assay [5] it was more than 100 µM; in [6], 61.6 µM. The TGI in assay [9] was more than 100 µM.
Regarding `O=[N+]([O-])c1ccc(C(c2c[nH]c3ccccc23)c2c[nH]c3ccccc23)cc1`, the TGI in assay [7] was determined as 27.5 µM.
In the case of `CC[C@H](C)N(CCN)C(=O)c1cc2ccccc2c(-c2ccccc2Cl)n1`, the TGI is 28 µM in [2], 27.6 µM in assay [3] and 10.4 µM in assay [5].
With `COc1cc(OC)c([C@@H]2OC(=O)C3C2C(=O)O[C@H]3c2cc(OC)c(OC)cc2OC)cc1OC` (some centres undefined), the TGI in assay [1], in assay [2], in assay [3], in [4], in assay [5] and in assay [6] was more than 100 µM throughout. The TGI in [8] was more than 100 µM.
Turning to `N#Cc1cn(C2OC(CO)C(O)C2O)c2ncnc(N)c12` (centres undefined), the GI50 in assay [1] was 0.0277 µM; in assay [4], 0.0557 µM; in [7] it was 0.0281 µM; in [10] it was 0.0127 µM and 0.045 µM; in assay [8], 0.045 µM. The TGI in assay [1] is more than 272 µM; in [3], 0.39 µM and 0.07 µM; in assay [6], 1.56 µM and 7.69 µM; in [11], 3.13 µM; in assay [8], 0.013 µM and 0.0663 µM.
Consider `CC(=O)n1c(COS(C)(=O)=O)nc2ccccc21`, for which the TGI in assay [7] is more than 100 µM.
As to `CC1=C(C(=O)Nc2ccccc2C)C(c2ccccc2)C(C(=O)Nc2ccccc2C)=C(C)N1`, the TGI in [1], in [2], in assay [3], in assay [4], in [5] and in assay [6] was more than 100 µM throughout. In [8], the TGI is 83.2 µM.
As for `Cc1cc2c(c(C#N)c1C)NC(=O)CCC2=O`, the TGI in [1], in [2], in assay [3], in assay [5], in assay [6] and in [9] was more than 100 µM in each case. Also, the TGI in assay [8] was more than 100 µM.
Take `N#CCC(=O)Nc1cccc(C(F)(F)F)c1`: the TGI in [1], in [3], in assay [4], in assay [5], in [6] and in [9] was more than 100 µM in each case. Besides, the TGI in assay [8] was more than 100 µM.
On to `C=CCn1c2c(c3ccccc3c1=O)C(=O)c1ccccc1-2`, for which the TGI in assay [7] is more than 100 µM.
As for `CCOC(=O)C(=O)Nc1nc2c(s1)C(=O)c1ccccc1C2=O`, the TGI in assay [1] was determined as 31.8 µM; in assay [2], 17.6 µM; in assay [3] it was 40.6 µM; in assay [5], 26.2 µM; in assay [6], 7.45 µM; in assay [9], 27.8 µM. The same molecule showed a TGI in [8] of 26.9 µM.
For `Cc1ccc(OCC(=O)N2N=C(c3ccccc3)CC2(O)c2ccccc2)cc1` (centres undefined), the TGI is more than 100 µM in [1]; 40.2 µM in [3]; more than 100 µM in assay [5]; more than 100 µM in [6]; more than 100 µM in [9]; more than 100 µM in [8].
As to `CCc1cccc(C(C)C)c1NC(=O)C(=O)C(Cc1nc2ccccc2[nH]c1=O)C(=O)OC` (centres undefined), the TGI in [1] was more than 100 µM; in assay [2] it was 30.5 µM; in assay [3], more than 100 µM; in assay [4] it was more than 100 µM; in assay [5], more than 100 µM; in assay [6], more than 100 µM. In [8], this molecule gave a TGI of more than 100 µM.
In the case of `CNC(P(=O)([O-])[O-])P(=O)([O-])[O-].N.N.[Pt+2]`, the GI50 in assay [1], in assay [3], in [4] and in assay [5] was more than 100 µM in each case. Besides, the TGI in [1], in assay [3], in assay [4] and in assay [5] was more than 100 µM each time.
As to `Cn1c2c(c3ccccc31)CCN(CCCCN1CCc3c(n(C)c4ccccc34)C1=O)C2`, the TGI in assay [1], in assay [2], in assay [3], in assay [4], in assay [5] and in assay [6] was more than 100 µM in each case. Further, the TGI in [9] and in assay [8] was more than 100 µM throughout.
As for `Cc1cc(C)nc(NS(=O)(=O)c2ccc(Nc3c4ccccc4nc4c(C(=O)Nc5ccc(S(=O)(=O)N=C(N)N)cc5)ccc(Cl)c34)cc2)n1`, the TGI in assay [1] was more than 100 µM; in assay [2], 41.8 µM; in assay [3] it was more than 100 µM; in assay [4], more than 100 µM; in [5], 72.4 µM; in [6], 55.4 µM. In assay [8], this molecule displayed a TGI of 56.7 µM.
Regarding `CC1=C(C(=O)Nc2c(C)cccc2C)C(c2ccc3c(c2)OCO3)C(C(=O)Nc2c(C)cccc2C)=C(C)N1`, the TGI in assay [1] was determined as 86.8 µM; in assay [2], 38.1 µM; in [4] it was 48.2 µM; in assay [5], 43.9 µM; in [9], 42.3 µM.
For the molecule `O=C(O)CSc1n[nH]c(-c2ccc(O)cc2)n1`, the TGI in [1], in assay [2], in assay [3], in [4], in assay [6] and in assay [9] was more than 100 µM each time. Further, the TGI in assay [8] was more than 100 µM.
As to `O=C(O)c1c(-c2cccc3ccccc23)sc(-c2cccc3ccccc23)c1C(=O)O`, the TGI in assay [1], in [2], in assay [3], in assay [4], in assay [5] and in assay [6] was more than 100 µM throughout. This molecule also displayed a TGI in assay [8] of more than 100 µM.
With `COC(=O)C1CC2(CC3=C1CCCC3)OCCO2` (centres undefined), the TGI in [1], in assay [2], in assay [3], in [5], in [6] and in assay [9] was more than 100 µM throughout. The same molecule showed a TGI in [8] of more than 100 µM.
Take `N#Cc1c(Sc2ccccc2N)cccc1Sc1ccccc1N`: in assay [7], the GI50 is 49.1 µM.
